In publication PMC11062922 (Nature Chemical Biology, 2023) one finds CATDS and potency estimated from few doses data, which are given here for nine compounds.

Where two headings read alike, the source gives them in different places. Some results are limits rather than exact numbers.

Experiment [1] addresses T1, AAK1 (Homo sapiens, UniProt Q2M2I8).
T1 construct: to maximize the representation of endogenous proteins; endogenous in cells
The experiment in a line: Kinobeads two-dose competition binding: AAK1.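 Note: kinobeads competition pulldown from cell lysate, compound preincubated 45 min at 4 °C, bead-bound protein measured by label-free mass spectrometry against DMSO vehicle control.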

For experiment [2], the target named is T2, MAP3K1 (Homo sapiens, UniProt Q13233).
T2 construct: endogenous in cells
In words: Kinobeads two-dose competition binding: MAP3K1. The note with it: for CATDS: target MAP3K1. From the text: (§1) Briefly, Kinobeads comprise seven broad-spectrum small molecule kinase inhibitors immobilized on Sepharose beads. […]. Compounds of interest are set to compete for target protein binding with Kinobeads in the lysate and the amount of a given protein bound to Kinobeads in the presence of a compound can be quantified relative to a dimethylsulfoxide (DMSO) vehicle control by label-free mass spectrometry. This assay measures the physical interaction of a compound with thousands of endogenous proteins in parallel and, when systematically increasing the concentration of competitor, enables the calculation of an apparent interaction constant ( Kdapp ) for each compound and protein.
(§2) Kinobeads pulldown experiments were performed as described previously[13],[14],[17] with minor modification. […] The protein concentration was adjusted to 5 mg ml^−1. Kinase inhibitors were spiked into 0.5 ml of cell lysate at final concentrations of 100 and 1,000 nM (or DMSO, 0.3, 1, 3, 10, 30, 100, 300 and 1,000 nM for full dose experiments). […] Lysates were incubated for 45 min at 4 °C. Subsequently, lysates were incubated with Kinobeads ε (17.5 µl of settled beads) for 30 min at 4 °C. To assess the degree of protein depletion from the lysates by Kinobeads, the flow through of the DMSO control was recovered for a pulldown of pulldown experiment where the lysate was incubated a second time with fresh Kinobeads. Beads were washed in three steps with buffer containing 0.4%, 0.2% and no IGEPAL. Bound proteins were reduced with 50 mM DTT in 8 M Urea, 40 mM Tris-HCl pH 7.4 for 30 min at room temperature. After alkylation with 55 mM chloroacetamide, the urea concentration was reduced to 1–2 M and proteins were digested with trypsin. Acidified peptides were desalted and concentrated using SepPak tC18 µEluation plates (Waters). Samples were frozen, dried by vacuum centrifugation and stored at −20 °C.
(§3) Each kinase inhibitor was processed together with all DMSO controls of the same plate. Additionally, each search was supplemented with five high quality DMSO controls for consistent peptide identification and protein grouping. The resultant file (proteinGroups.txt) was used for subsequent filtering, normalization, data visualization and target annotation that was automatically performed by a data processing pipeline built in house that used R (including the ‘drc’ and ‘heatmap’ packages). First, reverse hits, potential contaminants and not quantified proteins in the DMSO control samples were discarded. Protein raw and label-free quantification intensities were normalized to the median DMSO control intensity to obtain relative residual binding intensities for each protein group at every inhibitor concentration and standard deviations of the DMSO control intensity were calculated. IC50 values were estimated based on the following equation IC50=I×100−inhibition/inhibition where [I] is the inhibitor concentration that was used for IC50 calculation and ‘inhibition’ the relative residual binding intensity. […]. Estimated Kdapp values were then calculated by multiplying the estimated IC50 values with a protein-dependent correction factor that was limited to a maximum value of one. The correction factor accounts for the depletion of a target protein from the lysate by Kinobeads. The depletion can be measured by the ratio of the amount of protein captured in two consecutive pulldowns of the same DMSO control lysate. In this study, correction factors were determined in separate experiments using the same lysate mixture and the same bead batch. Correction factors were set to the median of all correction factors. Targets of kinase inhibitors were annotated using the previously published random forest classifier. A training data set was annotated manually. […]

In experiment [3] the target is T3, ACAD11 (Homo sapiens, UniProt Q709F0).
T3 construct: endogenous in cells
T3 sequence (Q709F0 1-780): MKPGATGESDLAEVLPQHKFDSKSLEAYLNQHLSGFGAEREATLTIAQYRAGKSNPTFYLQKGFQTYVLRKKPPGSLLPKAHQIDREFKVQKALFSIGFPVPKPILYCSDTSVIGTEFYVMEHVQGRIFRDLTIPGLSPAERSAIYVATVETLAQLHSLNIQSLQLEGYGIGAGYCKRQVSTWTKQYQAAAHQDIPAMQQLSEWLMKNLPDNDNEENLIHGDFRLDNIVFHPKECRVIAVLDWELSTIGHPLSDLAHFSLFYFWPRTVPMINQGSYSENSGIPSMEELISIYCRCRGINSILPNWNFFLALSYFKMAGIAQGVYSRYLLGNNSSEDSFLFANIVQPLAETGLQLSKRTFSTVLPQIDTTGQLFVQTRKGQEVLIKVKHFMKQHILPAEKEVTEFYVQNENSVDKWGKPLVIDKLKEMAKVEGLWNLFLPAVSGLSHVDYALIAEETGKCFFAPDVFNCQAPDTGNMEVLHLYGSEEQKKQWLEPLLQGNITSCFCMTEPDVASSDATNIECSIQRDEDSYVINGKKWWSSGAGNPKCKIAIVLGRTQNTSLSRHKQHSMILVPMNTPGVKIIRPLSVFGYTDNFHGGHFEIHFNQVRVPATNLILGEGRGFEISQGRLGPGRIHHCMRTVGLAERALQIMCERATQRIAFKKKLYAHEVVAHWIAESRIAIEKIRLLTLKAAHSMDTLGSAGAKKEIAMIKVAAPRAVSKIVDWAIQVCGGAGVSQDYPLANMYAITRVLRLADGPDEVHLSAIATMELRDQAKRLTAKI
In words: Kinobeads two-dose competition binding: ACAD11. The note with it: sheet CATDS matrix 2; Gene Name ACAD11.

The test system of experiment [4] is MDN1. The experiment in a line: Kinobeads competition binding: MDN1. The note with it: target MDN1. On the set-up: species or system human.
Experiment [5] has as its target CSNK2A2 (Homo sapiens, UniProt P19784). In words: Kinobeads two-dose competition binding: CSNK2A2. On the set-up: to maximize the representation of endogenous proteins; endogenous in cells. The note with it: for CATDS: target CSNK2A2.
Description: as §1, §2, §3

Where [6] appears, read: sheet CATDS matrix 2, Gene Name AAK1.

Regarding `CCN1CCN(Cc2ccc(Nc3ncc(F)c(-c4cc(F)c5nc(C)n(C(C)C)c5c4)n3)nc2)CC1` [Abemaciclib], the CATDS is on record as 0.04695 in experiment [1] (setting [6]); 0.04695 in experiment [1] (target AAK1); 0 in experiment [2]; 0 in experiment [3]; 0 in experiment [4]; 0.06221 in experiment [5].

`COc1cc(Nc2ncc3c(C)nc(-c4cc5ccccc5[nH]4)n3n2)cc(OC)c1OC` [GW869516X]: in experiment [5] (CSNK2A2, read-out: Kinobeads Data), the potency estimated from few doses was 56 nM.

Turning to `CC(C)N1CC(=O)N(C)c2cnc(Nc3cccc(S(=O)(=O)CCN4CCOCC4)c3)nc21` [BI00009348], the potency estimated from few doses is 662 nM in experiment [1] (sheet "Kinobeads Drugmatrix - all", unit inferred, same values below 1000 recur in sheet "nanomolar", read-out: Kinobeads Drugmatrix - all: apparent Kd, AAK1) and above 1000 nM in experiment [2] (Kinobeads two-dose, Drugmatrix - all 2, read-out: apparent Kd MAP3K1). In addition, the CATDS in experiment [1] (setting [6]) is on record as 0.07467; in experiment [3], 0.

Take `N#CC1(c2ccc(NC(=O)c3cccnc3NCc3ccncc3)cc2)CCCC1` [Apatinib]: the CATDS in experiment [1] (setting [6]), in experiment [1] (target AAK1), in experiment [2], in experiment [3], in experiment [4] and in experiment [5] was 0 in each case.

For `C#Cc1cccc(Nc2ncnc3cc(OC)c(OC4CCN(C)CC4)cc23)c1` [BI00007366], the CATDS in experiment [1] (setting [6]) and in experiment [3] was 0 in each case.

Take `CN(C)C/C=C/C(=O)Nc1cc2c(Nc3ccc(F)c(Cl)c3)ncnc2cc1O[C@H]1CCOC1` [Afatinib]: the CATDS in experiment [2], in experiment [3], in experiment [4] and in experiment [5] was 0 each time.

As to `C[C@]12O[C@H](C[C@]1(O)CO)n1c3ccccc3c3c4c(c5c6ccccc6n2c5c31)CNC4=O` [Lestaurtinib], the potency estimated from few doses in experiment [5] (read-out: Lestaurtinib Drugmatrix value, Gene Name CSNK2A2) was 415 nM.

Consider `Nc1ncnc2[nH]c(-c3ccccc3)nc12` [AH5015_KCGS], for which the CATDS in experiment [1] (setting [6]), in experiment [1] (target AAK1), in experiment [2], in experiment [3], in experiment [4] and in experiment [5] was 0 in each case. Also, the potency estimated from few doses in experiment [5] (Kinobeads two-dose screen (binding), read-out: Kdapp CSNK2A2) was above 1000 nM.

Regarding `CCc1cc2c(cc1N1CCC(N3CCOCC3)CC1)C(C)(C)c1[nH]c3cc(C#N)ccc3c1C2=O` [Alectinib], the CATDS in experiment [1] (setting [6]), in experiment [1] (target AAK1), in experiment [2], in experiment [3], in experiment [4] and in experiment [5] was 0 in each case.
